pEC50: −log10 of the molar value.
How the values were obtained:
[1] = system: red blood cell ghosts (plasma membrane); experiment: Membrane retention coefficient (MRC) in red blood cell ghosts; assay type: binding; conditions: 24 hr; Table II
Protocol: Determination of Membrane Retention Coefficient
The membrane retention coefficient (MRC) provides information regarding how well a given compound is retained in the plasma membrane of a cell and is determined as described below.
Generation of red blood cell ghosts for use as a model membrane is achieved by centrifuging whole blood at 300×g for 15 minutes, removal of the plasma and resuspension of the cell pellet in 0.83% (w/v) ammonium chloride. The ghosts are pelleted from the ammonium chloride by centrifuging at 10,000×g for 10 minutes. This ammonium chloride washing procedure is repeated a minimum of five times to insure that complete release of hemoglobin from the cells has occured. The ghosts are labeled with the compound in question at a concentration allowing for detection of the labeled ghosts by instrumental analysis or fluorescent microscopic methods, and at a concentration similar to those that would be used to label cells for a specific application as described above. For the determinations hereinbelow stock solutions of the compounds in question were prepared in ethanol at a molar concentration of 2×10^-3, and working dilutions of the compounds were prepared in iso-osmotic sucrose (52 g/500 ml distilled water). After incubation of the ghosts at an approximate concentration of 1×10^9 ghosts/ml in the working dilutions of the compounds for 10 minutes, the samples were centrifuged at 10,000×g to pellet the ghosts and the staining solution was aspirated from the samples. The labeled ghosts were resuspended in 1 ml of phosphate buffered saline solution containing 10% fetal bovine serum (PBS-FBS). Triplicate 20 ul aliquots were removed from each sample for the determination of the amount of total compound present. The samples were centrifuged as described above and triplicate 20 ul aliquots were removed from the supernatant for quantitative determination of amount of unbound compound present.
After sampling, the supernatant was aspirated and the red cell ghost pellet was resuspended in 1.0 ml of the PBS-FBS, which was once again sampled as described above. This procedure was repeated at least six times, allowing for detection of rapidly released compounds and was monitored after times equal to or greater than 24 hours to allow for the detection of more slowly released compounds. For the determination of the amount of compound present in each sample, the 20 ul aliquots were extracted into 3.0 ml of n-butanol by shaking. The samples were centrifuged at 3000×g to remove membrane debris and the butanol fractions were assayed for compound concentration. Fluorescent compounds are assayed in this manner using peak excitation and emission wave lengths for the particular compounds being assayed to determine the fluorescence units for each sample.
The determination of the amount of compound present in each sample as described above allows for the calculation of the MRC for each washing or fixed time point. The value is obtained by the following formula: […]
wherein CT represents the amount of compound present (in units determined by the method used to assay the compound) in the total sample and CS represents the amount of compound present in the supernatant sample for that particular time point. The comparison of the MRC values defines criteria for identification of the compounds of this invention, these criteria being: 1) the MRC values determined for each washing steps should have a value of at least about 90 and 2) the percent difference between MRC values over at least a 24 hour time period should be less than about 10%. [drawing 14]
The data provided in Table I below are the results from one experiment and serve as an example of the MRC determination. […]

[2] = system: erythrocyte membrane ghosts; experiment: Relative membrane retention in erythrocyte membrane ghosts (iodination study); assay type: binding; conditions: 24 hours, 37° C., PBS+EDTA+5% BSA
Protocol: Relative membrane retention was determined using erythrocyte membrane ghosts prepared by NH4 Cl lysis (Slezak and Horan, Blood, supra). Ghosts were labeled at 4×10^8 /ml with 10 μM compounds for 5 minutes at room temperature, using previously described procedures. However, post-labeling washes were carried out using PBS containing 1 mM EDTA and 5% BSA. After the final wash, ghosts were resuspended at 4×10^8 /ml in PBS+EDTA+5% BSA and incubated for 24 hours at 37° C. At 24 hours, duplicate 50 μl aliquots were withdrawn from a) the well mixed suspension of ghosts (for determination of total compound present), and b) the supernatant remaining after ghosts were pelleted for 15 minutes at 12,500×g (for determination of unbound compound present). Aliquots were extracted by admixture with 200 μl of 100% ethanol and fluorescence intensity of each extract measured using the Fluoroskan II fluorescence microplate reader. Percent compound retained was calculated as
total compound--unbound compound×100/total compound

[3] = system: membrane ghosts; experiment: Membrane binding stability (MBS) assay in membrane ghosts with 5% albumin; conditions: 24 hours
How it was run: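 Labeled membrane ghosts were suspended at decreasing numbers in a fixed volume of saline with 5% serum albumin. After 24 hours, label released into the supernatant after pelleting was expressed as percent of total. MBS is the area under the percent-retention versus ghosts/ml curve between 5×10^7 and 4×10^8 ghosts/ml.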

[4] = In vivo loss of dye from labeled, reinjected erythrocytes; conditions: rabbit, iv
Excerpt: *Half life for loss of dye from rabbit erythrocytes after labeling and

[5] = system: synovial cells; experiment: Synovial distribution after intra-articular injection; assay type: in vivo; conditions: 1 hour after injection into the knee, 10 μM
Protocol: To estimate the homogeneity or heterogeneity of incorporation by synovial cells after intra-articular injection, approximately 0.1 mL of a 10 μM solution of an iodide salt of compound T (see Example 2, above) in 300 mOsM pH 7.0 glucose was injected into the knee as described in Example 10. After 1 hour, the animal was sacrificed, and both injected and uninjected knee joints were dissected. Preparation of whole joint cross sections was not feasible because demineralization is required to cut thin sections and demineralizing solvents remove compounds of the invention from tissue. Therefore the infrapatellar fat pads which underlie the kneecap and form one boundary of the synovial cavity were carefully removed, snap frozen on dry ice, and stored at -80° until frozen sections could be prepared. Thick (10μ) cryostat sections were cut, adhered to glass slide, and evaluated by light and fluorescence microscopy.
(The synovial layer is only 1-2 cells thick in a normal joint but becomes thickened due to hyperproliferation in an arthritic joint.) The rest of the tissue was composed primarily of large fat cells.

[6] = system: cells (red cell membranes); experiment: Number of molecules of compound incorporated per cell; assay type: cell-based; conditions: 10 μM compounds
Protocol: Number of molecules of compound incorporated per cell was determined for cells labeled with 10 μM compounds. An aliquot of 10^6 cells (10 ul) was withdrawn from the washed cells after final resuspension and counting, compounds were extracted from the cell membrane by admixture with 250 μl of 100% ethanol, and the fluorescence intensity of 200 μl of the extract was measured using a Fluoroskan II fluorescence microplate reader and filter combination. Concentration of compound in each extract was determined from a calibration curve of known compound concentrations made up in 100% ethanol and measured on the Fluoroskan II. Number of molecules of compound per cell was then calculated from the known extract concentration, total volume of extract, and known number of cells extracted. Calculated values were (4.0±0.4)×10^6 for compound T (1.3±0.2)×10^6 for compound AA and (2.5±0.7)×10^6 for compound AB.

[7] = target: thrombin (Homo sapiens, UniProt P00734+P01008); experiment: Thrombin inhibition (fibrin generation in diluted human plasma); assay type: biochemical; conditions: 0.5 nM thrombin; conjugate on ghosts (@1.43×10^7 ghosts/200 ul)
Protocol: The concentration response for unconjugated anti-coagulant is provided for comparison. Percentage inhibition of thrombin response (y-axis) is recorded as a function of the molar concentration of compound tested (lower x-axis; log scale), and of the number of carrier cells per test sample (upper x-axis; log scale).
To determine whether the anticoagulative properties of the compounds of the invention were retained when coated on the surface of biomembranes, in vitro studies were performed to assess the ability of the compound of invention to inhibit the coagulation enzyme, thrombin. […] Concentration of compound 21 on ghosts was assessed by placing known numbers of ghosts in microtiter plate wells and comparing the observed fluorescence to the fluorescence produced by known standard concentrations of the compound. […] 211:10 (1987), wherein 100 μl a 1:10 dilution of human plasma in phosphate buffered saline (PBS) buffer, 50 μl of PBS containing varying concentrations of labeled ghosts or standard thrombin inhibitor, and 50 μl of PBS containing a constant amount (0.5 nM) of thrombin were added to microtiter plate wells and absorbance changes at 405 nm were recorded in a spectrophotometric plate reader (Bio-Tek) over a 60 minute period. […] The absorbance changes over time data were plotted and area-under-the-curve measurements performed by computer. […]

[8] = system: vascular smooth muscle cells (SMC); conditions: cited from earlier work
[9] = system: myointimal thickening; conditions: cell culture or animals after arterial injury; cited from earlier work
[10] = system: SMC cell surfaces; conditions: cited from earlier work

thrombin, sequence (P01008 33-464, one chain of several): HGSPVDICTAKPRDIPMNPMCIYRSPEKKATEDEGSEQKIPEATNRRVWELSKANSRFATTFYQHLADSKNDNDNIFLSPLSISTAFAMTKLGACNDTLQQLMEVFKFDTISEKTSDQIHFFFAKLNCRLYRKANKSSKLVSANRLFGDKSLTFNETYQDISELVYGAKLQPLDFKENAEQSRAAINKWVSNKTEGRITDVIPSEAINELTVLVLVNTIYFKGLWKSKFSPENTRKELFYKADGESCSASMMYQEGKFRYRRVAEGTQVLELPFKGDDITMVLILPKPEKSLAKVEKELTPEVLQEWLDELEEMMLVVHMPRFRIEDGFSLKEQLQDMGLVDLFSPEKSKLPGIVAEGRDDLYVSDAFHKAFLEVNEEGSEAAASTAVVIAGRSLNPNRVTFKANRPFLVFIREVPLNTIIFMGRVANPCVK

Row | Molecule | MRC# (at 24 hr.) [1] | Percent compound retained [2] [%] | MBS (% of max.) ([3]; Table II) | MBS ([3]; Table III) [%] | half-life [4] [days] | Labeling of infrapatellar fat pad cross sections [5] | Number of molecules of compound incorporated per cell [6] | pEC50 [7] | Inhibition of cell growth / antiproliferative activity [8] | Effect of heparin on smooth muscle cells / after arterial injury [9] | Binding to SMC cell surfaces [10]
1 | CCCCCCCCCCCCCCCCCCCCCCN1C(=CC=CC2=[N+](CCCCCCCCCCCCCC)c3ccccc3C2(C)C)C(C)(C)c2ccccc21 [T] | 97 ± 0.1 | 91.9±2.9 | 85 ± 1.7 % of max. | 85 ± 1.7 | 130 | bright and relatively homogeneous labeling was essentially confined to the synovial cell layer | (4.0±0.4)×10^6 molecules of compound per cell | – | – | – | –
2 | Heparin | – | – | – | – | – | – | – | 8.99 | inhibit the growth of several different cell types, including vascular smooth muscle cells (SMC) | decreased growth and reduced myointimal thickening and cell proliferation | binds to SMC cell surfaces via high affinity binding sites and is taken up intracellularly

— patent US5667764A, “Compounds, compositions and methods for binding bio-affecting substances to surface membranes of bio-particles” (Zynaxis, Inc., priority 1992, dated 1997)
